What was measured:
MT4 [1] = experiment: Antiviral activity against MT-4 cells infected with wild-type HIV-1; details: Homo sapiens
MT4 [2] = experiment: Antiviral activity against MT-4 cells infected with Nev-R strain of HIV-1; details: Homo sapiens
[3] = test system: Human immunodeficiency virus 1; experiment: Antiviral activity against V106I/Y181C strain of HIV-1; assay type: functional, organism-based
[4] = test system: Human immunodeficiency virus 1; experiment: Antiviral activity against E138K strain of HIV-1; assay type: functional, organism-based
[5] = test system: Human immunodeficiency virus 1; experiment: Antiviral activity against Y181C strain of HIV-1; assay type: functional, organism-based
[6] = test system: Human immunodeficiency virus 1; experiment: Antiviral activity against P236L strain of HIV-1; assay type: functional, organism-based
[7] = test system: Human immunodeficiency virus 1; experiment: Antiviral activity against G190A strain of HIV-1; assay type: functional, organism-based
[8] = test system: Human immunodeficiency virus 1; experiment: Antiviral activity against V106A/Y181C strain of HIV-1; assay type: functional, organism-based
[9] = test system: Human immunodeficiency virus 1; experiment: Antiviral activity against wild-type HIV-1; assay type: functional, organism-based
[10] = test system: Human immunodeficiency virus 1; experiment: Antiviral activity against L100I strain of HIV-1; assay type: functional, organism-based
[11] = test system: Human immunodeficiency virus 1; experiment: Antiviral activity against K103N/Y181C strain of HIV-1; assay type: functional, organism-based
[12] = test system: Human immunodeficiency virus 1; experiment: Antiviral activity against V106I strain of HIV-1; assay type: functional, organism-based
[13] = test system: Human immunodeficiency virus 1; experiment: Antiviral activity against K103N/V108I strain of HIV-1; assay type: functional, organism-based
[14] = test system: Human immunodeficiency virus 1; experiment: Antiviral activity against V106A strain of HIV-1; assay type: functional, organism-based
[15] = test system: Human immunodeficiency virus 1; experiment: Antiviral activity against K103N/P225H strain of HIV-1; assay type: functional, organism-based
[16] = test system: Human immunodeficiency virus 1; experiment: Antiviral activity against P225H strain of HIV-1; assay type: functional, organism-based
[17] = test system: Human immunodeficiency virus 1; experiment: Antiviral activity against V108I/Y181C strain of HIV-1; assay type: functional, organism-based
[18] = test system: Human immunodeficiency virus 1; experiment: Antiviral activity against Y188C strain of HIV-1; assay type: functional, organism-based
[19] = test system: Human immunodeficiency virus 1; experiment: Antiviral activity against K103N/L100I strain of HIV-1; assay type: functional, organism-based
[20] = test system: Human immunodeficiency virus 1; experiment: Antiviral activity against K103N/G190A strain of HIV-1; assay type: functional, organism-based
[21] = test system: Human immunodeficiency virus 1; experiment: Antiviral activity against K103N strain of HIV-1; assay type: functional, organism-based
[22] = test system: Human immunodeficiency virus 1; experiment: Antiviral activity against V108I strain of HIV-1; assay type: functional, organism-based
[23] = test system: Human immunodeficiency virus 1; experiment: Antiviral activity against K101E strain of HIV-1; assay type: functional, organism-based

Row | Structure (SMILES) | IC50 (MT4 [1]) [nM] | IC50 (MT4 [2]) [nM] | IC50 [3] [nM] | IC50 [4] [nM] | IC50 [5] [nM] | IC50 [6] [nM] | IC50 [7] [nM] | IC50 [8] [nM] | IC50 [9] [nM] | IC50 [10] [nM] | IC50 [11] [nM] | IC50 [13] [nM] | IC50 [14] [nM] | IC50 [15] [nM] | IC50 [16] [nM] | IC50 [17] [nM] | IC50 [18] [nM] | IC50 [19] [nM] | IC50 [20] [nM] | IC50 [21] [nM] | further results
1 | O=C1Nc2ccc(Cl)cc2[C@@](C#CC2CC2)(C(F)(F)F)O1 [EFAVIRENZ] | 3.5 | 2.7 | – | – | – | – | – | – | – | – | – | – | – | – | – | – | – | – | – | – | –
2 | CC(C)Nc1cccnc1N1CCN(C(=O)c2cc3cc(NS(C)(=O)=O)ccc3[nH]2)CC1 [DELAVIRDINE] | 160 | 2400 | 4500 | 10 | 2300 | 1600 | 35 | > 10000 | 200 | 920 | > 8400 | 3500 | 900 | 2300 | 11 | > 10000 | 170 | > 8400 | 2700 | 2700 | IC50 ([12]; read-out: IC50): 55 nM; IC50 [22]: 78 nM; IC50 [23]: 29 nM
3 | Cc1ccnc2c1NC(=O)c1cccnc1N2C1CC1 [NEVIRAPINE] | 96 | 17200 | > 10000 | 65 | 9400 | 56 | > 10000 | > 10000 | 100 | 500 | > 10000 | 15000 | 9000 | 9800 | 1200 | > 10000 | 2300 | 8000 | > 10000 | 6600 | IC50 [12]: 150 nM; IC50 [22]: 290 nM; IC50 [23]: 520 nM

Source: ChEMBL document CHEMBL1148482, “Novel benzophenones as non-nucleoside reverse transcriptase inhibitors of HIV-1” (J Med Chem, 2004)
